For one experiment, the target named is human TLR9 (Homo sapiens (Human), UniProt Q9NR96). The experiment is described as follows: TLR9 inhibition reporter assay (HEK-Blue cells, SEAP reporter, ODN2006 stimulation).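 Further: compounds tested over 0.05 nM to 50 µM, 22 h incubation, inhibition taken as SEAP signal drop from agonist plus DMSO wells toward a known inhibitor control.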 Particulars: read-out: TLR9 IC50, HEK-Blue cells overexpressing human TLR9, ODN2006 5 nM. (In general: Reporter assays use an easily measured gene product as a stand-in for the process of interest.)
Sequence of human TLR9 (Q9NR96 26-1032): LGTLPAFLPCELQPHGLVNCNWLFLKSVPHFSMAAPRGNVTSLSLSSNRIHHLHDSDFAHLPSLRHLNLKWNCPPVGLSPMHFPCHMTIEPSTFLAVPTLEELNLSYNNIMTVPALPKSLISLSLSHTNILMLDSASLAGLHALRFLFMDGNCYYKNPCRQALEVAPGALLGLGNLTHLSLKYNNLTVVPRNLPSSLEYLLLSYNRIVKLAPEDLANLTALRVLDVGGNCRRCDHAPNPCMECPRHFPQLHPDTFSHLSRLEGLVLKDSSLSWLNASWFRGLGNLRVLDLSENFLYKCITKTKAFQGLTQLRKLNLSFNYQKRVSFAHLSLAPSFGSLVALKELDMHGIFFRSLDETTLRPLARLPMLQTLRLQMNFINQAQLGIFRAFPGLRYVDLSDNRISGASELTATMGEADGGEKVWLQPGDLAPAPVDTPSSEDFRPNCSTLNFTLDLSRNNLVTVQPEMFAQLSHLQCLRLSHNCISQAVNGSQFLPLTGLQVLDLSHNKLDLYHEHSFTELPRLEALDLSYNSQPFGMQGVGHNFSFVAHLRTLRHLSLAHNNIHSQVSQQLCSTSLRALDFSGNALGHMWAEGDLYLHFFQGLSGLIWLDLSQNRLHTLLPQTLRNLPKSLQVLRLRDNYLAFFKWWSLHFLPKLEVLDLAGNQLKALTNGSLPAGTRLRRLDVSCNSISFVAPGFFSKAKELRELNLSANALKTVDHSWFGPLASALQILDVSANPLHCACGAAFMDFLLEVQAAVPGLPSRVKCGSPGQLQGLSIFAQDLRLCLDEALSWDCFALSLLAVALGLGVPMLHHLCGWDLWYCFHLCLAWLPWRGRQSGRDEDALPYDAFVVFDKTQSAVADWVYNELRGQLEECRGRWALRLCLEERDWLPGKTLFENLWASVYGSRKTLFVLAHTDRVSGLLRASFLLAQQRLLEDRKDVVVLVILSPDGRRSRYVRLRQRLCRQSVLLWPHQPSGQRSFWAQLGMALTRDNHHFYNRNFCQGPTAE

The target in another experiment is human TLR8 (Homo sapiens (Human), UniProt Q9NR97). The experiment is described as follows: TLR8 inhibition reporter assay (HEK-Blue cells, SEAP reporter, R848 stimulation).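 Further: compounds tested from 0.05 nM to 50 µM, 22 h at 37 °C, SEAP measured with HEK-Blue Detection, inhibition relative to agonist plus DMSO versus a known inhibitor.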 Particulars: read-out: TLR8 IC50, HEK-Blue cells overexpressing human TLR8, R848 15.9 μM.
Sequence of human TLR8 (Q9NR97 27-1041): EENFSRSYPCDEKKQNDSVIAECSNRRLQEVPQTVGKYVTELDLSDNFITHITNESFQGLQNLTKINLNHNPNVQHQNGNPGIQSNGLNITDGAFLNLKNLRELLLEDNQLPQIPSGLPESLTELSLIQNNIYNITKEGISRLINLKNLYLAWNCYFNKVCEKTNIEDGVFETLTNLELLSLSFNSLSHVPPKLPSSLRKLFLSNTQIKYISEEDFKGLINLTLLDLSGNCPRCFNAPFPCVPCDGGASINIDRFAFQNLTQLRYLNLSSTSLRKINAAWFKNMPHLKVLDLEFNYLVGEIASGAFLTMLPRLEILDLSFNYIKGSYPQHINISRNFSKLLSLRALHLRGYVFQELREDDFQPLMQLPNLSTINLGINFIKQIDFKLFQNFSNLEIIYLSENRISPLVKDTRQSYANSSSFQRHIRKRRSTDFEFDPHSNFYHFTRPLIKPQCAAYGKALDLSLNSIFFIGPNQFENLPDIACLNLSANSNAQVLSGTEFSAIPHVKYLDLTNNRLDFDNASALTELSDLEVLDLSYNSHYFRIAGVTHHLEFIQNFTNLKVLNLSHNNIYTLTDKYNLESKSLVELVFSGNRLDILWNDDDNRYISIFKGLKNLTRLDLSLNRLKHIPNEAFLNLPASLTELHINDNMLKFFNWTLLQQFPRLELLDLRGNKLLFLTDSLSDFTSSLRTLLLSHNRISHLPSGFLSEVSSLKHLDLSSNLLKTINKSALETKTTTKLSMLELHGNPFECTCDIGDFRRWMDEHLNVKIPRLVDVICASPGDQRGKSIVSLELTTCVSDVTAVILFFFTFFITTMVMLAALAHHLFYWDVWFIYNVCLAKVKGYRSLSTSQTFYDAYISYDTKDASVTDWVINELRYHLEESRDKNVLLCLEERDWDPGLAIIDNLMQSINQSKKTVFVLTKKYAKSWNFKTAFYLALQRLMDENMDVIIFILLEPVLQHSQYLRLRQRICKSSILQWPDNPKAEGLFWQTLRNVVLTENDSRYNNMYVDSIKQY
The target in another experiment is human TLR7 (Homo sapiens (Human), UniProt Q9NYK1). The experiment is described as follows: TLR7 inhibition reporter assay (HEK-Blue cells, SEAP reporter, gardiquimod stimulation). Type of experiment: cell-based. Particulars: HEK-Blue cells overexpressing human TLR7, gardiquimod 7.5 μM.
Sequence of human TLR7 (Q9NYK1 27-1049): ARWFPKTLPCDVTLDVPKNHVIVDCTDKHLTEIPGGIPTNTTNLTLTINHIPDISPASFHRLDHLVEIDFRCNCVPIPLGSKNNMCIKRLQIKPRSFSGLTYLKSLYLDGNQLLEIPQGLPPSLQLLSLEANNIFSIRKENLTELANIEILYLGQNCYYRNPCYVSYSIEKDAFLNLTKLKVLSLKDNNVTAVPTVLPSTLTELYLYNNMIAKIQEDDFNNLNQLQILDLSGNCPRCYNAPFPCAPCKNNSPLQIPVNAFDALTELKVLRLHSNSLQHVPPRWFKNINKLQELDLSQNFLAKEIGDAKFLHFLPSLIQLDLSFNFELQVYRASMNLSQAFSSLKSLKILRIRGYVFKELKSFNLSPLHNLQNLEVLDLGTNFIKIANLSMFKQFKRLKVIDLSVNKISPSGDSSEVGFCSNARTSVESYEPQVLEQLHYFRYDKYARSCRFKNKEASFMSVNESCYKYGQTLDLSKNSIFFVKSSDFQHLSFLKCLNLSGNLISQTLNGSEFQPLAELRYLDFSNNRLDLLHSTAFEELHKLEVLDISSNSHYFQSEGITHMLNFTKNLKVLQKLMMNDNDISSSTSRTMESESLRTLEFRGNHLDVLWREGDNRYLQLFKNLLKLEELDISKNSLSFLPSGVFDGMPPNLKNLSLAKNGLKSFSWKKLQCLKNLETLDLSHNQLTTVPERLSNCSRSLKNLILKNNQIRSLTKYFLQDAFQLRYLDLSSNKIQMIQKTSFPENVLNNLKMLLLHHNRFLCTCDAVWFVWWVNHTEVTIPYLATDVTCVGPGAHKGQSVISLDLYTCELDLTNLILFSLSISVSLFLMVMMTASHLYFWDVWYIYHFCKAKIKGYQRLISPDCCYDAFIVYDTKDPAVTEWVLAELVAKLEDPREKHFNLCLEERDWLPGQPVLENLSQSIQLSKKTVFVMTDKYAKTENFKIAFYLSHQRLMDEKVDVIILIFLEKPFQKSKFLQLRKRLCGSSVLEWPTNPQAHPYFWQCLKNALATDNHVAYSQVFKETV

The record followed here is patent US10660877B2 (BRISTOL-MYERS SQUIBB COMPANY, priority 2016, dated 2020).

In general, IC50 refers to the concentration needed to halve the response being measured.

Structures are written as SMILES.

Procedure for human TLR9: TLR7/8/9 Inhibition Reporter Assays
Briefly, cells are seeded into Greiner 384 well plates (15000 cells per well for TLR7, 20,000 for TLR8 and 25,000 for TLR9) and then treated with test compounds in DMSO to yield a final dose response concentration range of 0.05 nM-50 μM. […] After a 22 hour incubation at 37° C., 5% CO2, SEAP levels are determined with the addition of HEK-Blue™ Detection reagent (Invivogen), a cell culture medium that allows for detection of SEAP, according to manufacturer's specifications. The percent inhibition is determined as the % reduction in the HEK-Blue signal present in wells treated with agonist plus DMSO alone compared to wells treated with a known inhibitor.

Regarding `COc1cc(-c2[nH]c3ccc(C4CCNCC4)cc3c2C(C)C)cc(C2CC2)n1` [Example 486, 2-(2-cyclopropyl-6-methoxypyridin-4-yl)-3-isopropyl-5-(piperidin-4-yl)-1H-indole], the half-maximal inhibitory concentration (IC50) is 2760 nM at human TLR9, 213 nM at human TLR8 and 49 nM on human TLR7.
For `CCc1cc(-c2[nH]c3ccc(C4CCNCC4)cc3c2C(C)C)cc(OC)n1` [Example 487, 2-(2-ethyl-6-methoxypyridin-4-yl)-3-isopropyl-5-(piperidin-4-yl)-1H-indole] the same measures were 2140 nM, 79.1 nM and 33.4 nM.
For `Cc1cc(-c2[nH]c3ccc(C4CCNC(=O)C4)cc3c2C(C)C)ccn1` (stereo not drawn) [Example 490, 4-(3-isopropyl-2-(2-methylpyridin-4-yl)-1H-indol-5-yl)piperidin-2-one] the same measures were above 50000 nM, 67.4 nM and 186 nM.
Take `Cc1cc(-c2[nH]c3ccc(C4CCNCC4)cc3c2CC(F)F)cc(C)n1` [Example 492, 3-(2,2-difluoroethyl)-2-(2,6-dimethylpyridin-4-yl)-5-(piperidin-4-yl)-1H-indole]: the IC50 at human TLR9 worked out at 539 nM; at human TLR8 it was 54.1 nM; at human TLR7, 15.8 nM.
For `Cc1cc(-c2[nH]c3ccc(C4CCN(C(C)C(=O)N(C)C)CC4)cc3c2CC(F)F)cc(C)n1` (stereo not drawn) [Example 493, 2-(4-(3-(2,2-difluoroethyl)-2-(2,6-dimethylpyridin-4-yl)-1H-indol-5-yl)piperidin-1-yl)-N,N-dimethylpropanamide] the same measures were 1640 nM, 498 nM and 84.5 nM.
With `FC(F)Cc1c(-c2ccnc(Cl)c2)[nH]c2ccc(C3CCNCC3)cc12` [Example 494, 2-(2-chloropyridin-4-yl)-3-(2,2-difluoroethyl)-5-(piperidin-4-yl)-1H-indole], the IC50 is 2040 nM on human TLR9, 66.4 nM at human TLR8 and 36.5 nM at human TLR7.
In the same order, the values of `Cc1cc(-c2[nH]c3ccc(C4CC(C)(C)N(C)C(C)(C)C4)cc3c2C(C)C)cc(C)n1` [Example 496, 2-(2,6-dimethylpyridin-4-yl)-3-isopropyl-5-(1,2,2,6,6-pentamethylpiperidin-4-yl)-1H-indole] are above 50000 nM, 9590 nM and 7190 nM.
As for `Cc1cc(-c2[nH]c3ccc(C4CCN(C(=O)C5CCN(C(C)C)CC5)CC4)cc3c2C(C)C)cc(C)n1` [Example 497, (4-(2-(2,6-dimethylpyridin-4-yl)-3-isopropyl-1H-indol-5-yl)piperidin-1-yl)(1-isopropylpiperidin-4-yl)methanone], the IC50 came to 266 nM on human TLR9, 13.1 nM on human TLR8 and 2.7 nM on human TLR7.
Consider `CNC(=O)CN1CCC(c2ccc3[nH]c(-c4cc(C)nc(F)c4)c(C(C)C)c3c2)CC1` [Example 498, 2-(4-(2-(2-fluoro-6-methylpyridin-4-yl)-3-isopropyl-1H-indol-5-yl)piperidin-1-yl)-N-methylacetamide], for which the IC50 on human TLR9 was determined as 6940 nM; on human TLR8, 1240 nM; at human TLR7, 834 nM.
For `CC(=O)N1CCC(c2ccc3[nH]c(-c4cc(C)nc(F)c4)c(C(C)C)c3c2)CC1` [Example 499, 1-(4-(2-(2-fluoro-6-methylpyridin-4-yl)-3-isopropyl-1H-indol-5-yl)piperidin-1-yl)ethan-1-one] the same measures were above 50000 nM, 10700 nM and 3690 nM.
As for `Cc1cc(-c2[nH]c3ccc(C4CCN(CC(=O)N(C)C)CC4)cc3c2C(C)C)cc(F)n1` [Example 500, 2-(4-(2-(2-fluoro-6-methylpyridin-4-yl)-3-isopropyl-1H-indol-5-yl)piperidin-1-yl)-N,N-dimethylacetamide], the results for the IC50 on human TLR9, at human TLR8 and at human TLR7 were 3320 nM, 14.2 nM and 6.3 nM, respectively.
Take `Cc1cc(-c2[nH]c3ccc(C4CCN(C(=O)CN(C)C)CC4)cc3c2C(C)C)cc(F)n1` [Example 501, 2-(dimethylamino)-1-(4-(2-(2-fluoro-6-methylpyridin-4-yl)-3-isopropyl-1H-indol-5-yl)piperidin-1-yl)ethan-1-one]: the IC50 at human TLR9 is 992 nM; at human TLR8, 30.3 nM; against human TLR7, 5.5 nM.
On to `Cc1cc(-c2[nH]c3ccc(C4CCN(C(=O)C5CC(=O)N(C)C5)CC4)cc3c2C(C)C)cc(F)n1` (stereo not drawn) [Example 502, 4-(4-(2-(2-fluoro-6-methylpyridin-4-yl)-3-isopropyl-1H-indol-5-yl)piperidine-1-carbonyl)-1-methylpyrrolidin-2-one], for which the figures for the IC50 on human TLR9, on human TLR8 and against human TLR7 were 24700 nM, 156 nM and 28.4 nM, respectively.
Consider `CNC(=O)CN1CCC(c2ccc3[nH]c(-c4cc(C)nc(C5CC5)c4)c(C(C)C)c3c2)CC1` [Example 503, 2-(4-(2-(2-cyclopropyl-6-methylpyridin-4-yl)-3-isopropyl-1H-indol-5-yl)piperidin-1-yl)-N-methylacetamide], for which the results for the IC50 at human TLR9, on human TLR8 and against human TLR7 were 1230 nM, 24.1 nM and 10.8 nM, respectively.
In the same order, the values of `CC(=O)N1CCC(c2ccc3[nH]c(-c4cc(C)nc(C5CC5)c4)c(C(C)C)c3c2)CC1` [Example 504, 1-(4-(2-(2-cyclopropyl-6-methylpyridin-4-yl)-3-isopropyl-1H-indol-5-yl)piperidin-1-yl)ethan-1-one] are 33900 nM, 638 nM and 64.2 nM.
For `Cc1cc(-c2[nH]c3ccc(C4CCN(CC(=O)N(C)C)CC4)cc3c2C(C)C)cc(C2CC2)n1` [Example 505, 2-(4-(2-(2-cyclopropyl-6-methylpyridin-4-yl)-3-isopropyl-1H-indol-5-yl)piperidin-1-yl)-N,N-dimethylacetamide] the same measures were 710 nM, 27.1 nM and 5.9 nM.
As for `Cc1cc(-c2[nH]c3ccc(C4CCN(C(=O)CN(C)C)CC4)cc3c2C(C)C)cc(C2CC2)n1` [Example 506, 1-(4-(2-(2-cyclopropyl-6-methylpyridin-4-yl)-3-isopropyl-1H-indol-5-yl)piperidin-1-yl)-2-(dimethylamino)ethan-1-one], the IC50 was found to be 1100 nM on human TLR9, 42.7 nM at human TLR8 and 11.1 nM at human TLR7.
For `Cc1cc(-c2[nH]c3ccc(C4CCN(C(=O)C5CC(=O)N(C)C5)CC4)cc3c2C(C)C)cc(C2CC2)n1` (stereo not drawn) [Example 507, 4-(4-(2-(2-cyclopropyl-6-methylpyridin-4-yl)-3-isopropyl-1H-indol-5-yl)piperidine-1-carbonyl)-1-methylpyrrolidin-2-one] the same measures were 19000 nM, 346 nM and 52 nM.
Turning to `CNCC(=O)N1CCC(c2ccc3[nH]c(-c4cc(C)nc(C5CC5)c4)c(C(C)C)c3c2)CC1` [Example 508, 1-(4-(2-(2-cyclopropyl-6-methylpyridin-4-yl)-3-isopropyl-1H-indol-5-yl)piperidin-1-yl)-2-(methylamino)ethan-1-one], the IC50 was 592 nM at human TLR9, 57.9 nM at human TLR8 and 8.8 nM on human TLR7.
On to `Cc1cc(-c2[nH]c3ccc(C4CCN(C(=O)CN(C)C)CC4)cc3c2C(C)C)ccn1` [Example 509, 2-(dimethylamino)-1-(4-(3-isopropyl-2-(2-methylpyridin-4-yl)-1H-indol-5-yl)piperidin-1-yl)ethan-1-one], for which the IC50 at human TLR9 amounted to 3710 nM; at human TLR8, 21.9 nM; at human TLR7 it was 20 nM.
For `CNCC(=O)N1CCC(c2ccc3[nH]c(-c4ccnc(C)c4)c(C(C)C)c3c2)CC1` [Example 510, 1-(4-(3-isopropyl-2-(2-methylpyridin-4-yl)-1H-indol-5-yl)piperidin-1-yl)-2-(methylamino)ethan-1-one] the same measures were 695 nM, 8.6 nM and 8.8 nM.
For `Cc1cc(-c2[nH]c3ccc(C4CCN(C(=O)CNC[C@@H](O)CO)CC4)cc3c2C(C)C)ccn1` [Example 511, (R)-2-((2,3-dihydroxypropyl)amino)-1-(4-(3-isopropyl-2-(2-methylpyridin-4-yl)-1H-indol-5-yl)piperidin-1-yl)ethan-1-one] the same measures were 1460 nM, 31.3 nM and 32.6 nM.
For the compound `Cc1cc(-c2[nH]c3ccc(C4CCN(CC(=O)N(C)C)CC4)cc3c2C(C)C)ccn1` [Example 512, 2-(4-(3-isopropyl-2-(2-methylpyridin-4-yl)-1H-indol-5-yl)piperidin-1-yl)-N,N-dimethylacetamide], the figures for the IC50 on human TLR9, on human TLR8 and at human TLR7 were 1060 nM, 11.7 nM and 13 nM, respectively.
For `CNC(=O)CN1CCC(c2ccc3[nH]c(-c4ccnc(C)c4)c(C(C)C)c3c2)CC1` [Example 513] the same measures were 2260 nM, 9.8 nM and 13.5 nM.
Turning to `CNC(=O)CN1CCC(c2ccc3[nH]c(-c4cc(C5CC5)ncc4F)c(C(C)C)c3c2)CC1` [Example 514, 2-(4-(2-(2-cyclopropyl-5-fluoropyridin-4-yl)-3-isopropyl-1H-indol-5-yl)piperidin-1-yl)-N-methylacetamide], the IC50 at human TLR9 is 10900 nM; at human TLR8, 269 nM; on human TLR7, 60.3 nM.
As to `CC(C)c1c(-c2cc(C3CC3)ncc2F)[nH]c2ccc(C3CCN(CC(=O)N(C)C)CC3)cc12` [Example 515, 2-(4-(2-(2-cyclopropyl-5-fluoropyridin-4-yl)-3-isopropyl-1H-indol-5-yl)piperidin-1-yl)-N,N-dimethylacetamide], the IC50 on human TLR9 stood at 2220 nM; at human TLR8, 136 nM; at human TLR7, 19.8 nM.
